# Assay results as given in patent US11685726B2, “Pharmaceutical compositions of 6-(2-(2H-tetrazol-5-yl)ethyl)-6-fluorodecahydroisoquinoline-3-carboxylic acid and ester derivatives thereof” (Sea Pharmaceuticals LLC, priority 2020, dated 2023).
# Assay: Irwin neurological test battery in rats (SAD and MAD studies)
# Format: in vivo, rat
# Description: Rats were subjected to the Irwin Test Procedure of in vivo assessment of test compounds effects on neurological functions in rodents which was modified for rats. Rats were acclimated to the procedure room for at least 30 minutes. Rats were assessed for the features described below. Each rat was scored on a 0 to 3 scale with 0 representing the response in a normal animal and 3 representing a maximally impaired animal. Note that it is normal for an animal to score within the 0 to 1 range during Irwin testing. Animals were tested 55-60 min after test compound administration. Reference: Irwin, S. 20 Sep. 1968; “Comprehensive observational assessment: la. A symptomatic quantitative procedure for assessing the behavioral and physiologic state of the mouse” Psychopharmacologia 13(3): 222-257.
# Single Ascending Dose (SAD) 1-day acute administration of test compound 2 by the oral PO route of administration to rats and samples collected at the timepoints described for subsequent extraction, dissolution and quantitative LCMS bioanalysis. […]
# Multiple Ascending Dose (MAD) 5-day once daily administration of test compounds was done to rats and samples collected at the timepoints described for subsequent extraction, dissolution and quantitative LCMS bioanalysis. […]
smiles,measurement,setting,value
"O=C(O)[C@@H]1C[C@H]2CC(F)(CCc3nnn[nH]3)CC[C@H]2CN1 (stereo in doubt) [Compound 2, (3S,4aS,6R,8aR)-6-fluoro-6-[2-(1H-1,2,3,4-tetrazol-5-yl)ethyl]-decahydroisoquinoline-3-carboxylic acid]","Irwin test observations, SAD study","oral 10-200 mg/kg, day 1, 55-60 minutes post treatment",Normal or very little change from normal was observed for many of the doses
same,"Irwin test observations, MAD study","oral once daily 5 days, day 3 and day 5, 55-60 minutes post treatment",Normal or very little change from normal was observed for many of the doses
